Reference: article PMC9067978, “Design, synthesis, and molecular docking studies of novel pomalidomide-based PROTACs as potential anti-cancer agents targeting EGFR^WT and EGFR^T790M” (Journal of Enzyme Inhibition and Medicinal Chemistry, 2022)

Legend:
EGFR^T790M = target: T1, EGFR^T790M (Homo sapiens, UniProt P00533, T790M); experiment: EGFR^T790M kinase inhibitory assay (HTRF); assay type: biochemical; details: ATP 1.65 µM, mean ± S.D of three experiments, read-out: EGFR^790M IC50
T1 construct: purchased Sigma
T1 sequence (P00533 25-1210 T790M): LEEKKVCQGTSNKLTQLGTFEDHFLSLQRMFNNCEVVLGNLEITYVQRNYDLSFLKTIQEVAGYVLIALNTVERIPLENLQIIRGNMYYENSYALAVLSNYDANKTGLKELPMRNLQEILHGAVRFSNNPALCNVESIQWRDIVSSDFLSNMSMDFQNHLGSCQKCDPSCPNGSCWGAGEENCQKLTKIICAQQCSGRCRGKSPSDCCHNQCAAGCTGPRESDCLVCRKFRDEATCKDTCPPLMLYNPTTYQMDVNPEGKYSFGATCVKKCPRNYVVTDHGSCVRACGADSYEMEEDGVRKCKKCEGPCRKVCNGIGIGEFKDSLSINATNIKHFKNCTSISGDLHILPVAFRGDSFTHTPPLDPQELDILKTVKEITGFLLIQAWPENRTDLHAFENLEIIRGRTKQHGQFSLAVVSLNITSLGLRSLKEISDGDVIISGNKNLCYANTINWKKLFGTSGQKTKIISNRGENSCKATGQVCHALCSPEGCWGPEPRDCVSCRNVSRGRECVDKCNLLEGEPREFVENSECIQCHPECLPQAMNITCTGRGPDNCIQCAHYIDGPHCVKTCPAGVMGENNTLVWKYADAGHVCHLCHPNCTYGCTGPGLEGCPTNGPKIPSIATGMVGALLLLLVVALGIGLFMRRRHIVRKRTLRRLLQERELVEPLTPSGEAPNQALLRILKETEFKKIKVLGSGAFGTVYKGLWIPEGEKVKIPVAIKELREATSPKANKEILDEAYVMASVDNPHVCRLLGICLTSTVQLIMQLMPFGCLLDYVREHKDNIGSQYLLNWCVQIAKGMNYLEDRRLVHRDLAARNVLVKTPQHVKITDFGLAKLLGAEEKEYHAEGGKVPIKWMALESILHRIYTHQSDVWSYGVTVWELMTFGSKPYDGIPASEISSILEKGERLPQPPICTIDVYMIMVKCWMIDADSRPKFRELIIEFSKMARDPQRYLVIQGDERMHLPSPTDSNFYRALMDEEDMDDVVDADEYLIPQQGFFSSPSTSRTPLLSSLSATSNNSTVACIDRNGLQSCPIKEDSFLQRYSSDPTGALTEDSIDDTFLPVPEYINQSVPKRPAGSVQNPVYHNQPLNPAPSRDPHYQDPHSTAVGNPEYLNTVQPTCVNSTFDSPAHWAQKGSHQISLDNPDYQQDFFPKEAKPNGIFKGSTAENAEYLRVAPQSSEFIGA
Method: This test used HTRF[44] assay with EGFR^WT and EGFR^T790M (Sigma). For the first 5 minutes, the evaluated compounds were incubated with EGFR^WT and/or EGFR^T790M and their substrates in the enzymatic buffer. […] The assay was performed at 37 °C for 30 minutes. The addition of EDTA-containing detection reagents halted the process. After one hour detection period, GraphPad Prism 5.0 was used to calculate the IC50 values. For each concentration, three separate trials were carried out.

EGFR phosphorylation = experiment: Western blotting, EGFR phosphorylation in A549 cells; assay type: cell-based, human; details: A549 cells, 0.1, 0.3 and 1 µM, erlotinib for comparison
Method: At a concentration of 100 nM, the time-dependent degradation activities of compounds 15–21 were also examined (Figure 5(A)).
Figure 5. (A) EGFR time-dependent degradation by compound 16 in A549 cell lines. Cells were treated with100 nM of 15–21 for indicated time points. Western blotting was used to evaluate EGFR protein, and densitometry was used to measure EGFR degradation, which was adjusted to the density of β-actin protein (n ¼2). (B) Compounds 15 and 16 have EGFR degradation and phosphorylation inhibitory action in A549 cells. The cells were exposed to concentrations of 0.1, 0.3, and 1 µM. Erlotinib were utilised for comparison. […]
Cells were seeded in 6-well plates at 1 × 10^6 per well, incubated at 37 °C with 5% CO2 for 24 h before drug exposure. […] The results were detected by an enhanced chemiluminescence system (Mill-pore). […]

MCF-7 [1] = experiment: DNA-flow cytometric cell cycle analysis, MCF-7; assay type: cell-based, human; details: 3.92 µM, 24 hours
Method: (§1) Then, the influence of compound 16 on the cell cycle profile was then investigated.
(§2) The cells that had been tested were then trypsinized and washed in sterilised phosphate buffer saline (PBS). The collected cells were fixed with cold ethanol (100%, 1.5 ml). According to the manufacturer’s instructions, a Cycle TESTTM PLUS DNA Reagent Kit was used to dye the cells (BD Biosciences, San Jose, CA). A flow cytometer was used to assess cell-cycle distribution.[52]

HepG-2 [2] = experiment: DNA-flow cytometric cell cycle analysis, HepG-2; assay type: cell-based, human; details: 3.02 µM, 24 hours
Method: as §1, §2

HepG-2 [3] = experiment: Annexin V/propidium iodide apoptosis assay, HepG-2; assay type: cell-based, human; details: 3.02 µM, 24 hours
Method: (§3) The double staining Annexin V/propidium iodide technique was performed to assess the mechanism of cell death and apoptosis-inducing activity.[46] […] As shown in (Figure 7 (A and B).
(§4) The negative control was chosen to be DMSO. The cells were then collected and washed twice in PBS. The cells were separated using centrifugation. An apoptosis detection kit (BD Biosciences, SanJose, CA) was used in this investigation. Following the manufacturer’s instructions, the cells were dyed with Annexin V-FITC and propidium iodide (PI) in the binding buffer for 20 minutes at 37 °C in the darkness. A flow cytometer was used to assess the binding of Annexin V-FITC and PI. The frequencies in all quadrants were investigated using the Flowjo program.[53]

HCT-116 [4] = experiment: Annexin V/propidium iodide apoptosis assay, HCT-116; assay type: cell-based, human; details: 3.32 µM, 24 hours
Method: as §3, §4

caspase-3 = experiment: Caspase-3 determination (ELISA) in HepG-2 cells; assay type: cell-based, human; details: HepG-2, 3.02 µM, 24 hours
Method: Caspase-3 activation was measured using a Caspase-3 ELISA Kit (KHO1091).

MCF-7 [5] = experiment: MTT anti-proliferative assay, MCF-7
Method: (§5) The anti-proliferative activity was quantified in the following way. At a density of 3–8 × 10^3 cells per well, human cancer cell lines were introduced to 96-well plates. The wells were then incubated at 37 °C for 12 hours in 5% CO2 incubator. To determine the DMSO content, the culture media was swapped with 0.1 ml of fresh medium containing graded amounts of the test compounds for each well. Incubation time for the wells was two days. The cells were then cultured in 100 µl MTT solution (5 µg ml^−1) for another 4 hours in each well.
(§6) The absorbance of each well was measured at 490 nm with an automated ELISA reader system (TECAN, CHE) after MTT-formazan crystals were dissolved in 100 µl of DMSO. The IC50 values were calculated using nonlinear regression fitting models (Graph Pad, Prism Version 5). The results were expressed as means ± SD and were based on the average of three separate, duplicate trials.

HepG-2 [6] = experiment: MTT anti-proliferative assay, HepG-2
Method: as §5, §6

HCT-116 [7] = experiment: MTT anti-proliferative assay, HCT-116
Method: as §5, §6

[8] = ratio of cytotoxic IC50 to erlotinib

Cn1c(=O)c(C(=O)NNCCOCCOCC(=O)Nc2cccc3c2C(=O)N(C2CCC(=O)NC2=O)C3=O)nc2ccccc21 (stereo not shown) [Compound 16, N-(2-(2,6-dioxopiperidin-3-yl)-1,3-dioxoisoindolin-4-yl)-2-(2-(2-(2-(4-methyl-3-oxo-3,4-dihydroquinoxaline-2-carbonyl) hydrazinyl)ethoxy)ethoxy) acetamide]
IC50 (EGFR^T790M): 4.02 ± 0.19 µM | inhibition of EGFR phosphorylation, in words (EGFR phosphorylation): effectively displayed inhibitory activity | fold increase of cells in G2-M phase vs control, MCF-7 (MCF-7 [1]): 1.53 fold | fold increase of cells in pre-G1 phase vs control, MCF-7 (MCF-7 [1]): 4.39 fold | fold increase of cells in G2-M phase vs control, HepG-2 (HepG-2 [2]): 1.61 fold | fold increase of cells in pre-G1 phase vs control, HepG-2 (HepG-2 [2]): 6.76 fold | cellular apoptosis, early and late, folds vs control, HepG-2 (HepG-2 [3]): ~13 folds | early apoptosis ratio, HepG-2 (HepG-2 [3]): 7.55% | late apoptosis ratio, HepG-2 (HepG-2 [3]): 5.53% | cellular apoptosis, early and late, times vs control, HCT-116 (HCT-116 [4]): ~9 times | early apoptosis ratio, HCT-116 (HCT-116 [4]): 5.96% | late apoptosis ratio, HCT-116 (HCT-116 [4]): 5.15% | increase of caspase-3 level vs control cells (caspase-3): 6.31 fold | IC50 (MCF-7 [5]; Homo sapiens, MCF7, read-out: IC50 MCF-7): 3.92 ± 0.19 µM | folds more active than erlotinib, MCF-7 (MCF-7 [5]; [8]): 5.55 folds | IC50 (HepG-2 [6]; Homo sapiens, HepG2, read-out: IC50 HepG-2): 3.02 ± 0.12 µM | folds more active than erlotinib, HepG-2 (HepG-2 [6]; [8]): 4.34 folds | IC50 (HCT-116 [7]; Homo sapiens, HCT-116, read-out: IC50 HCT-116): 3.32 ± 0.15 µM | folds more active than erlotinib, HCT-116 (HCT-116 [7]; [8]): 5.04 folds
